The structures appear in SMILES notation. In brackets after ≈: the same amount, converted by molar mass. Like-named read-outs stand apart in the source and are kept apart here.

Experimental findings from patent publication US6825199B2, “7-Substituted quinazolin-2,4-diones useful as antibacterial agents” (Warner-Lambert Company, priority 1997, dated 2004) are described below.

Data set [1] relates to Chinese hamster V79 cells. In words: Mammalian cell cytotoxicity, colony formation. It counts as cell-based. The conditions noted are these: 3 hours drug treatment, colony formation after 5 days. On the procedure: The cytotoxicity was determined in Chinese hamster V79 cells. The cells were grown overnight and treated with drug for 3 hours at 37° C., at which time the compound containing media was replaced with fresh media. The cells were then incubated for 5 days and examined for colony formation.

For the next data set, the system named is S. pyogenes C203. In words: Antibacterial assay, standard microtitration (MIC). The conditions noted are these: Streptococcus pyogenes, C203; Gram positive; read-out: Minimum Inhibitory Concentrations S. pyogenes C203. The data set is classed as cell-based. The protocol: (§1) Antibacterial assay: The compounds of the present invention were tested against an assortment of Gram negative and Gram positive organisms using standard microtitration techniques (Cohen, et al., Antimicrob. Agents Chemother., 1985;28:766; Heifetz, et al., Antimicrob. Agents Chemother., 1974;6:124).

A further data set has as its system B. subtilis RB1. In words: Antibacterial assay, standard microtitration (MIC). The data set is classed as cell-based. The note with it: Bacillus subtilis, Gram positive, read-out: Minimum Inhibitory Concentrations B. subtilis RB1. The protocol: as §1
The subject of another data set is S. aureus 29213. Description: Antibacterial assay, standard microtitration (MIC). It counts as cell-based. The note with it: Staphylococcus aureus, 29213; Gram positive; read-out: Minimum Inhibitory Concentrations S. aureus 29213. On the procedure:
as §1

Another data set deals with E. coli Tol C. In words: Antibacterial assay, standard microtitration (MIC). It counts as cell-based. The note with it: Escherichia coli, read-out: Minimum Inhibitory Concentrations E. coli Tol C. The protocol:
as §1

A further data set has as its system E. coli B90. Description: Antibacterial assay, standard microtitration (MIC). The data set is classed as cell-based. The note with it: Escherichia coli, B90; Gram negative; read-out: Minimum Inhibitory Concentrations E. coli B90. The protocol:
as §1

In the next data set the test system is E. coli MC4100. In words: Antibacterial assay, standard microtitration (MIC). The data set is classed as cell-based. The conditions noted are these: Escherichia coli, MC4100; Gram negative; read-out: Minimum Inhibitory Concentrations E. coli MC4100. On the procedure: as §1
For a further data set, the target named is T1, E. coli Topoisomerase IV (Escherichia coli, UniProt P0AFI2+P20083).
T1 construct: made in house; host or cells: E. coli overexpressing strains
T1 sequence (P20083 whole entry): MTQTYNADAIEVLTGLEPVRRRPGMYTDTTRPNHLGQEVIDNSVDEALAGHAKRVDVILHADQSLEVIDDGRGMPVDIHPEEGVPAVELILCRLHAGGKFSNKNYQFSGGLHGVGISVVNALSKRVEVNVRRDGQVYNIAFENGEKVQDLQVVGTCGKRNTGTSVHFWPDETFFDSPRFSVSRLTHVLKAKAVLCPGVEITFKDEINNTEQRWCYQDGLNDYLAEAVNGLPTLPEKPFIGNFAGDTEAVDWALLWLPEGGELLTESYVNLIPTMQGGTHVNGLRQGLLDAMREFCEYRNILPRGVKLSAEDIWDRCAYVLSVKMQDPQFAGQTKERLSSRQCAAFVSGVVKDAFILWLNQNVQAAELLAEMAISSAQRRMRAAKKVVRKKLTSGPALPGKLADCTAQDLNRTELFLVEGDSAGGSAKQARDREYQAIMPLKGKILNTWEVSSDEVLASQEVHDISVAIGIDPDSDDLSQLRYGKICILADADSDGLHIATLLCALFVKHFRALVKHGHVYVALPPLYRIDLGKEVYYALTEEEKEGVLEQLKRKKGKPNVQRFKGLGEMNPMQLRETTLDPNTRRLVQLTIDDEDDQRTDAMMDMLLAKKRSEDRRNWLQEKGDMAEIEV
T1 sequence (P0AFI2 whole entry): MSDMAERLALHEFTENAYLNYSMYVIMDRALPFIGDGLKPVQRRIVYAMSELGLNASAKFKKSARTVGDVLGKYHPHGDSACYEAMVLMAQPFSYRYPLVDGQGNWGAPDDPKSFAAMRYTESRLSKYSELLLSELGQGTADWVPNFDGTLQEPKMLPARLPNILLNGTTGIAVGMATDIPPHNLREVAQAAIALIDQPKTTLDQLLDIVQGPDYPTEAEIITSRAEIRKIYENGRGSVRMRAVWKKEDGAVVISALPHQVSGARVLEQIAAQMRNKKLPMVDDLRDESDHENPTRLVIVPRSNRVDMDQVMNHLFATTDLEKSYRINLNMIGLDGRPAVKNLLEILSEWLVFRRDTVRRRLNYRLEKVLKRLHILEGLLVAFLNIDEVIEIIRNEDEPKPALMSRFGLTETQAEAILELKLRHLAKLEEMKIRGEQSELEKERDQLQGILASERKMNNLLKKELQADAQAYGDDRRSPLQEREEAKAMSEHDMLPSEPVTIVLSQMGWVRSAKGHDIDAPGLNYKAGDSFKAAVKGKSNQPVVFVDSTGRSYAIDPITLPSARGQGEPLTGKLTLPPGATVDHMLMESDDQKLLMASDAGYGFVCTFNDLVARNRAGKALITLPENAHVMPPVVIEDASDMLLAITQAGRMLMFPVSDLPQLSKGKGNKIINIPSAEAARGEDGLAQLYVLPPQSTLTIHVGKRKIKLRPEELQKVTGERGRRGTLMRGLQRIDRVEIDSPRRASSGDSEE
In words: Topoisomerase IV k-DNA decatenation assay. It counts as biochemical. The protocol: Topoisomerase IV assay: Topoisomerase IV was purified from E. coli overexpressing strains, and the compounds were assayed according to literature conditions (Journal of Biological Chemistry, 1993;268(32):24481). The k-DNA decatenation assay was used. Briefly, reactions were performed in buffer R (40 mM Tris-HCl (pH 7.5),6 mM MgCl2, 10 mM DTT, 100 mM potassium glutamate, 40 μM ATP, 50 μg/mL bovine serum albumin, 10 mM NaCl). Two-tenths microgram of kinetoplast DNA (k-DNA; TopoGen, Columbus, Ohio) was incubated with 5 ng of E. coli Topoisomerase IV in the presence or absence of test compounds for 10 minutes at 37° C. Subsequently, one-tenth volume of 10×gel loading buffer (0.3% bromophenol blue, 16% Ficoll, 10 mM Na2HPO4) was added, and samples were loaded onto horizontal 0.8% agarose gels prepared with TBE buffer and containing 0.05 μg/mL of ethidium bromide. Electrophoresis was at 70 V for 2 to 4 hours. Gels were then examined by exposure to UV light. The concentration of drug inhibiting 50% of the decantenating activity of Topoisomerase IV is given as an IC50 and recorded in Table 2.

The target of the next data set is T2, E. coli gyrase (Escherichia coli, UniProt P0AES4+P0AES6).
T2 construct: purchased Lucent, Ltd., Leicester, UK
T2 sequence (P0AES4 whole entry, one chain of several): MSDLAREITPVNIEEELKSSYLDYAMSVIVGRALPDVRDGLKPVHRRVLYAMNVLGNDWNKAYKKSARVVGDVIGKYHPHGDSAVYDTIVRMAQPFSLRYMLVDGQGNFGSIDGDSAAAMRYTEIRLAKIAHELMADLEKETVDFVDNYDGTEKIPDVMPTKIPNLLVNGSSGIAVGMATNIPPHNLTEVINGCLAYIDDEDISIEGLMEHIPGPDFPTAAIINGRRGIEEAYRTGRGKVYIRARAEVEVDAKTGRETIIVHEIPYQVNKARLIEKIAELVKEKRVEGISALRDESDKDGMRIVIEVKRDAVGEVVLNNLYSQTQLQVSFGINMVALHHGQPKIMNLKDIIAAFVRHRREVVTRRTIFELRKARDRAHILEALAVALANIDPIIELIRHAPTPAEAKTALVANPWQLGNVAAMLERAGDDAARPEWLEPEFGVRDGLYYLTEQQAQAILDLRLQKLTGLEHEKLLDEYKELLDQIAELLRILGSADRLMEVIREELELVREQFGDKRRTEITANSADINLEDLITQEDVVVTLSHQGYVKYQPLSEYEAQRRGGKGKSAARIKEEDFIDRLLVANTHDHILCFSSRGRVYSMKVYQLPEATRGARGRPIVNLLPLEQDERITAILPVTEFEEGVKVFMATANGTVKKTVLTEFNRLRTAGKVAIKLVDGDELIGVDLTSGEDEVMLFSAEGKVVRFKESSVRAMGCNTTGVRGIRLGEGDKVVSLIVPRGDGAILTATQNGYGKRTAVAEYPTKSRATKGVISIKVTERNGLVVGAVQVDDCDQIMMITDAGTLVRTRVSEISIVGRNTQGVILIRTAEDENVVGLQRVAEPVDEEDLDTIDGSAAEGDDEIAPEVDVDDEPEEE
Description: DNA gyrase supercoiling inhibition assay. The data set is classed as biochemical. On the procedure:
DNA gyrase assay: The effects of test agents on the activity of DNA gyrase was determined by the supercoiling inhibition assay, following reaction conditions recommended by the enzyme supplier (Lucent, Ltd., Leicester, UK), as follows. Reactions were performed in buffer G (35 mM Tris-HCl (pH 7.5), 24 mM KCl, 4 mM MgCl2, 2 mM DTT, 1.8 mM spermidine, 1 mM ATP, 0.1 mg/mL bovine serum albumin). 0.25 μg of relaxed plasmid pBR322 (Lucent, Ltd., Leicester, UK) was reacted with 1 U E. coli gyrase (Lucent, Ltd., Leicester, UK), in the absence or presence of drugs, for 30 minutes at 37° C. Reactions were stopped by the addition of SDS and proteinase K to respective final concentrations of 1% and 0.5 mg/mL. After an additional 30 minutes at 37° C., one-tenth volume of 10×loading buffer (0.3% bromophenol blue, 16% Ficoll, 10 mM Na2HPO4) was added, and reactions were loaded onto agarose gels and electrophoresed as described above for intercalation assays. The concentration of drug inhibiting 50% of the supercoiling activity of DNA gyrase is given as an IC50 and recorded in Table 2.

[2] abbreviates: k-DNA decatenation, 10 minutes at 37° C., read-out: DNA TopIV IC50.
Where [3] appears, read: supercoiling of relaxed pBR322, 30 minutes at 37° C., read-out: Gyrase IC50.

Take `CCn1c(=O)n(O)c(=O)c2cc(F)c(N3CCOCC3)cc21` [Example 3, 1-Ethyl-6-fluoro-3-hydroxy-7-morpholin-4-yl-1H-quinazoline-2,4-dione]: the “50% Cytotoxic Conc. in CHO Cells” value in data set [1] is 176 µg/mL. Moreover, the MIC with S. pyogenes C203 is above 64 µg/mL; in the data set with B. subtilis RB1, 8 µg/mL (≈ 25.9 µM); in the data set on S. aureus 29213, above 64 µg/mL; with E. coli Tol C it was 2 µg/mL (≈ 6.47 µM); in the data set on E. coli B90, 4 µg/mL (≈ 12.9 µM); in the data set on E. coli MC4100, above 64 µg/mL.

For the compound `CCn1c(=O)n(O)c(=O)c2cc(F)c(N3CCC(C)(CN)C3)cc21.Cl` (stereo not shown) [Example 9, 7-(3-Aminomethyl-3-methyl-pyrrolidin-1-yl)-1-ethyl-6-fluoro-3-hydroxy-1H-quinazoline-2,4-dione, hydrochloride], the IC50 is above 100 µM on E. coli Topoisomerase IV and 15.5 µM against E. coli gyrase. Moreover, the MIC turned out to be 8 µg/mL in the data set on S. pyogenes C203; 16 µg/mL with B. subtilis RB1; 16 µg/mL in the data set with S. aureus 29213; 2 µg/mL in the data set on E. coli Tol C; 4 µg/mL with E. coli B90; 16 µg/mL in the data set on E. coli MC4100.

Take `O=c1c2cc(F)c(N3CCCC3)cc2n(C2CC2)c(=O)n1O` [Example 38, 1-Cyclopropyl-6-fluoro-3-hydroxy-7-(pyrrolidin-1-yl)-1H-quinazoline-2,4-dione]: the figures for the half-inhibitory concentration (IC50) at E. coli Topoisomerase IV (setting [2]) and at E. coli gyrase (setting [3]) were 57 µM and 6.6 µM, respectively. Besides, the MIC was determined as 16 µg/mL (≈ 52.4 µM) with S. pyogenes C203; 0.25 µg/mL (≈ 0.819 µM) with B. subtilis RB1; 1 µg/mL (≈ 3.28 µM) in the data set on S. aureus 29213; 0.1 µg/mL (≈ 0.328 µM) in the data set on E. coli Tol C; 0.1 µg/mL (≈ 0.328 µM) in the data set on E. coli B90; 8 µg/mL (≈ 26.2 µM) in the data set on E. coli MC4100.

Turning to `NC1CCN(c2cc3c(cc2F)c(=O)n(O)c(=O)n3C2CC2)C1` (stereo not shown) [Example 39, 7-(3-Amino-pyrrolidin-1-yl)-1-cyclopropyl-6-fluoro-3-hydroxy-1H-quinazoline-2,4-dione], the IC50 amounted to 9 µM at E. coli Topoisomerase IV (setting [2]) and 2.4 µM on E. coli gyrase (setting [3]). For the same compound, the MIC in the data set on S. pyogenes C203 was found to be 4 µg/mL (≈ 12.5 µM); with B. subtilis RB1, 2 µg/mL (≈ 6.24 µM); in the data set on S. aureus 29213 it was 32 µg/mL (≈ 99.9 µM); with E. coli Tol C it was 0.25 µg/mL (≈ 0.78 µM); with E. coli B90, 0.3 µg/mL (≈ 0.937 µM); in the data set on E. coli MC4100, 1 µg/mL (≈ 3.12 µM).

The IC50 is the concentration needed to halve the response being measured.
